Experimental data reported in patent US9795675B2, “Light-activatable polymeric nanoparticles” (CNC—CENTRO DE NEUROCIÊNCIAS E BIOLOGIA CELULAR, priority 2013, dated 2017).

Legend:
U937 cells [1] = experiment: Uptake of FITC-labeled transferrin (validation of dynasor); format: cell-based, human; settings: dynasor 80 μM, 30 min pre-incubation
Description: (§1) Uptake mechanisms analysis. For determining the uptake mechanism(s), we first perform NP uptake assays in the presence of endocytosis inhibitors. U937 cells were cultured on 24 well plates (1×10^5 cells/well) and inhibited by one of the following chemicals during 30 min before adding a suspension of TRITC-labelled NPs (5 μg/mL): dynasor (80 μM), cytochalasin D (10 μM), nocodazole (50 uM), filipin III (100 μM) and polyinosinic acid (100 μg/mL). The inhibitor concentrations were based in values reported in literature and further validated by us to have no cytotoxic effect over the period of the assay (6 h), as confirmed by ATP assay. The incubation of the cells with NPs for different times was performed in the presence of the inhibitor. As controls, we used cells without NPs and cells incubated with NPs without inhibitor. At the end of each time point, cells were centrifuged at 1300 rpm, 2° C. for 5 min with PBS, washed one time with cold trypan blue solution (200 μL; 600 μg/mL), re-washed 3 times with cold PBS and then resuspended in PBS containing 2.5% FBS (500 μL) for FACS analysis. A total of 10,000 events were obtained per measurement. To validate the inhibitory activity of dynasor we performed uptake studies of FITC-labeled transferrin, known to selectively enter cells via clatherin-mediated endocytosis. […] Cells were then evaluated as before.

U937 cells [2] = experiment: NP uptake in the presence of endocytosis inhibitors (FACS); format: cell-based, human; settings: dynasor 80 μM; TRITC-labelled NPs 5 μg/mL
Description: as §1

patients = settings: cited from earlier work
K562, NB4 and U937 cells = experiment: Retinoic acid uptake assay ([3H]RA, scintillation counting); format: cell-based, human
Description: Experiments were initiated by the addition of medium containing [^3H]RA (1 μM and 10 μM) and [^3H]RA-NPs (1 μg/mL and 10 μg/mL) to cultures (60,000 cells/condition, 24-well plate, 1 mL) of K562, NB4 and U937 cells. After experimental incubations with medium containing [^3H]RA and [^3H]RA-NPs for 4, 24 and 72 hours, cells were collected to eppendorfs, washed with PBS by centrifugation (1500 rpm, 5 min, 2 times) to remove non-internalized [^3H]RA and then resuspend in 100 μL of lysis buffer (see above) and kept on ice until scintillation counting procedure.
The titrium content of the samples was assayed by adding 100 μL aliquot of the samples to 1 mL liquid scintillation fluid (Packard Ultima Gold) and counted in a TriCarb 2900 TR Scintillation analyzer (Perkin Elmer). All conditions were performed in triplicate.

O=C(N/N=C/c1ccc(O)c(O)c1)c1cc2ccccc2cc1O [Dynasore]
internalisation of FITC-labeled transferrin (U937 cells [1]): inhibits the internalisation of transferrin | reduction of the uptake of NPs compared to control cells (U937 cells [2]): 90%

CC1=C(/C=C/C(C)=C/C=C/C(C)=C/C(=O)O)C(C)(C)CCC1 [RA, retinoic acid]
patients receiving RA who develop serious complications including the differentiation syndrome (patients; human, in vivo): approximately 25% | patients in whom the dose of RA leads to hyperleukocytosis and respiratory distress syndrome (patients; up to): 20-30% | time of peak RA uptake (K562, NB4 and U937 cells): 24 h

CC1=C(/C=C/C(C)=C/C=C/C(C)=C/C(=O)O)C(C)(C)CCC1 [[^3H]RA]
uptake yield of [^3H]RA (K562, NB4 and U937 cells; [^3H]RA 1 and 10 uM or [^3H]RA-NPs 1 and 10 ug/mL, for 4 hours, measured after 24 and 72 hours): below 2%
